Results: US7250304B2, “Functional assay of high-density lipoprotein” (The Regents of the University of California, priority 2000, dated 2007)

What was measured:
[1] = Non-enzymatic oxidation of PAPC to POVPC, PGPC, PEIPC (ESI-MS); conditions: for amount that significantly decreased PAPC and increased the three oxidized phospholipids: added to 10 μg of PAPC for 8 hours
[2] = tested on: human artery wall cell cocultures; assay: LDL oxidation by human artery wall cell cocultures (lipid hydroperoxides); assay type: cell-based; conditions: for oxidation of LDL by fatty acid pretreated artery wall cells: cocultures 18 hours with 100 μM fatty acid, washed, then LDL 250 μg/ml; for reduction in lipid hydroperoxide levels: cocultures preincubated with inhibitor 1×10^−8 mol/L before addition of LDL 250 μg/ml, 8 hrs; for ability of pretreated artery wall cocultures to oxidize LDL: cocultures incubated 8 hrs with agent, agent removed before LDL 250 μg/ml
Procedure: (§1) The wells of the microtiter plates were treated with 0.1% gelatin at 37° C. overnight. HASMC were added at a confluent density of 1×10^5 cells/cm^2. Cells were cultured for 2 d at which time they had covered the entire surface of the well and had produced a substantial amount of extracellular matrix. HAEC were subsequently added at 2×10^5 cells/cm^2 and were allowed to grow forming a complete monolayer of confluent HAEC in 2 d. In all experiments, HAEC and autologous HASMC (from the same donor) were used at passage levels of four to six.
(§2) In general, the cocultures were treated with native LDL (250 μg/ml) in the absence or presence of HDL for 8 h. The supernatants were collected and used for determination of lipid hydroperoxide levels. The cocultures were subsequently washed and fresh culture medium 199 (M199) without any additions was added and incubated for an additional 8 hrs. This allowed the collection of monocyte chemotactic activity released by the cells as a result of stimulation by the oxidized LDL. At the end of incubation, the supernatants were collected from cocultures, diluted 40-fold, and assayed for monocyte chemotactic activity. Briefly, the supernatant was added to a standard Neuroprobe chamber (NeuroProbe, Cabin John, Md.), with monocytes added to the top. The chamber was incubated for 60 min at 37° C. After the incubation, the chamber was disassembled and the nonmigrated monocytes were wiped off. The membrane was then air dried and fixed with 1% glutaraldehyde and stained with 0.1% Crystal Violet dye. The number of migrated monocytes was determined microscopically and expressed as the mean±SD of 12 standardized high power fields counted in quadruple wells.
(§3) Statistical significance was determined by model 1 ANOVA. […] Significance is defined as p<0.05.
Human artery wall cocultures were preincubated with ETYA at a concentration of 10^−8 mol/L or with cinnamyl-3,4-dihydroxy-α-cyanocynamate (CDC, from Biomol) at a concentration of 10^−8 mol/L in M199 containing 10% LPDS for 30 min. The cocultures were then washed and LDL was added at 250 μg/ml and incubated for 8 hrs.

[3] = tested on: human artery wall cell cocultures; assay: Monocyte chemotaxis assay on coculture conditioned medium; assay type: cell-based; conditions: for LDL-induced monocyte chemotaxis in fatty acid pretreated cocultures: cocultures 18 hours with 100 μM fatty acid, washed, then LDL; for decrease in LDL-induced monocyte chemotactic activity: cocultures preincubated with inhibitor 1×10^−8 mol/L before addition of LDL 250 μg/ml; for LDL-induced monocyte chemotaxis in pretreated cocultures: cocultures incubated 8 hrs with agent, agent removed before LDL
Procedure: as §1
Monocytes were isolated using a modification of the Recalde method as previously described (Fogelman et al. (1988) J. Lipid Res. 29: 1243-1247) from the blood of normal volunteers after obtaining written consent under a protocol approved by the human research subject protection committee of the University of California, Los Angeles.
as §2

paraoxonase = conditions: mice, six hours after injection
[4] = tested on: human aortic endothelial cells; assay: Lipid hydroperoxide formation when treated LDL is added to HAEC; assay type: cell-based; conditions: LDL 250 μg pre-incubated with agent 4 hrs, re-isolated
Procedure: (§4) Freshly isolated LDL (250 μg) was incubated with pure 13(S)-HPODE (1.0 μg) in 10% LPDS in M 199 for 4 hrs at 37° C. with gentle mixing. LDL was re-isolated by centrifugation and was incubated with monolayers of human aortic endothelial cells. Supernatants were removed at time points ranging from zero to 5 hours and were assayed for lipid hydroperoxide content. The endothelial monolayer was washed after each time point and a monocyte suspension was added, incubated, washed, and the number of adherent monocytes determined.
Freshly isolated LDL (250 μg) was incubated with 10 units of pure soybean lipoxygenase bound to sepharose beads for 4 hrs at 37° C. with gentle mixing. LDL was re-isolated by centrifugation and incubated with monolayers of HAEC. Supernatants were removed at time points ranging from zero to 4 hours and were assayed for lipid hydroperoxide content. The endothelial monolayer was washed after each time point and monocyte adhesion determined.
as §3

[5] = Non-enzymatic formation of cholesteryl linoleate hydroperoxide (RP-HPLC); conditions: 0.5 μg/ml with cholesteryl linoleate 10 μg/ml, air oxidation 6 hrs
Procedure: […] 0.5 μg/ml (Panel A) or cholesteryl linoleate 10 μg/ml (Panel B) or cholesteryl linoleate 10 μg/ml together with 13(S) HPODE 0.5 μg/ml (Panel C) in chloroform/methanol (2:1, v/v) containing 0.01% BHT was briefly swirled to mix and evaporated to dryness under argon and allowed to undergo air oxidation in a laminar flow hood for 6 hrs. The lipids were solubilized in 50 μl of chloroform and analyzed for the presence of cholesteryl linoleate hydroperoxide (Ch18:2-OOH) by RP-HPLC as described herein.
Fast performance liquid chromatography (FPLC) and reverse phase high performance liquid chromatography ([…]) were performed as described in example 1. For the detection of cholesteryl linoleate hydroperoxide an Alltech Alltima 250×4.6 mm, 5 micron RP-HPLC C18 column was used to separate and detect cholesteryl linoleate hydroperoxide at 234 nm and cholesteryl linoleate at 205 nm. The mobile solvent consisted of acetonitrile/2-propanol/water (44:54:2, v/v/v) at 1.0 ml/min. Lipids were resuspended in the mobile solvent for injection.

HAEC monolayers = assay: Monocyte adhesion assay; assay type: cell-based, human; conditions: LDL 250 μg pre-incubated with agent 4 hrs, re-isolated
Procedure: In brief, HAEC monolayers, in 48-well tissue culture plates were incubated with the desired LDL or phospholipid for 4 hrs at 37° C. as described (Watson et al. (1995) J. Clin. Invest. 96: 2882-2891). After washing, a suspension of human peripheral blood monocytes was added and incubated for 10 min. The loosely adherent monocytes were then washed away, the monolayers were fixed and the number of adherent monocytes counted in 9 high power microscopic fields.
as §4, with “Supernatants were removed at time points ranging from zero to 5 hours and were assayed for lipid hydroperoxide content.” left out
Freshly isolated LDL (250 μg) was incubated with 10 units of pure soybean lipoxygenase bound to sepharose beads for 4 hrs at 37° C. with gentle mixing. […] The endothelial monolayer was washed after each time point and monocyte adhesion determined.
Blood samples were collected from patients referred to the cardiac catheterization laboratory at The Center for Health Sciences at the University of California, Los Angeles. […] The HDL-Ox-PAPC mixture was then added to endothelial monolayers and monocyte binding was determined.

[6] = tested on: human artery wall cell cocultures; assay: Hydroperoxide content of apo A-I lipid extract from fatty acid treated cocultures; assay type: cell-based; conditions: cocultures with or without C18:2, then apo A-I 100 μg/ml 3 hrs
Procedure: The medium was removed and the cultures washed three times. Fresh medium without fatty acids was added and the cultures were incubated at 37° C. for an additional 3 hrs. […] at 250 μg/ml was then added to one set of the cocultures in M199 containing 10% LPDS and incubated for 8 hrs. The medium was then removed and lipid hydroperoxides (Panel A) and monocyte chemotactic activity (Panel B) determined. To the second set of cocultures (Panel C) apo A-I was added at 100 μg/ml and incubated for three more hours with gentle mixing at 37° C. […] Values are mean±SD of triplicate determinations. The asterisks denote p<0.001. […] (1991) Drug Metab. Dispos. 19: 100-106). Statistical significance was determined by model 1 ANOVA. […] Significance is defined as p<0.05.

Compound: OO [hydrogen peroxide]
- effect on relative abundance of PAPC and formation of oxidized phospholipids ([1]; 2 mM and 4 mM, 10 μg PAPC, 8 hours): had no effect
- effect on relative abundance of PAPC ([1]; 8 mM added to 10 μg PAPC for 8 hours): dramatically decreased the relative abundance of PAPC

Compound: CCCCC/C=C\C/C=C\C/C=C\C/C=C\CCCC(=O)O [arachidonic acid]
- oxidation of LDL by fatty acid pretreated artery wall cells [2]: even more potent than linoleic acid

Compound: CCCCC[C@@H](/C=C/C=C\C/C=C\C/C=C\CCCC(=O)O)OO [15(S)-HPETE, 15(S)-hydroperoxyeicosatetraenoic acid]
- ability to oxidize PAPC on a molar basis relative to hydrogen peroxide [1]: more than two orders of magnitude greater
- amount that significantly decreased PAPC and increased the three oxidized phospholipids [1]: 0.5 µg

Compound: CCCCCCCC/C=C\CCCCCCCC(=O)O [oleic acid]
- LDL-induced monocyte chemotaxis in fatty acid pretreated cocultures [3]: not
- oxidation of LDL by fatty acid pretreated artery wall cells [2]: not

Compound: CCCCCC#CCC#CCC#CCC#CCCCC(=O)O [ETYA, 5,8,11,14-eicosatetraynoic acid]
- decrease in LDL-induced monocyte chemotactic activity [3]: 75±10%
- reduction in lipid hydroperoxide levels [2]: 80±7%

Compound: N#CC(=Cc1ccc(O)c(O)c1)C(=O)OCC=Cc1ccccc1 [CDC, cinnamyl-3,4-dihydroxy-α-cyanocynamate]
- decrease in LDL-induced monocyte chemotactic activity [3]: 74±11%
- reduction in lipid hydroperoxide levels [2]: 73±6%

Compound: apo A-II: Human apo A-II obtained from Sigma
- LDL-induced monocyte chemotaxis in pretreated cocultures [3]: induce monocyte chemotaxis
- ability of pretreated artery wall cocultures to oxidize LDL [2]: retained their ability to oxidize LDL
- PON activity in plasma and HDL, increase (paraoxonase): did not change

Compound: CCCCC[C@@H](/C=C/C=C\CCCCCCCC(=O)O)OO [13(S)-HPODE, 13(S)-hydroperoxyoctadecadienoic acid]
- ability to oxidize PAPC on a molar basis relative to hydrogen peroxide [1]: more than two orders of magnitude greater
- formation of POVPC, PGPC, PEIPC from PAPC as a function of time ([1]; 1.0 μg added to 10 μg PAPC, air oxidation): enhanced the formation of the three biologically active oxidized phospholipids at each time point sampled
- amount that significantly decreased PAPC and increased the three oxidized phospholipids [1]: 0.5 µg
- formation of lipid hydroperoxides when treated LDL added to HAEC [4]: increased the formation of lipid hydroperoxides
- non-enzymatic formation of cholesteryl linoleate hydroperoxide (Ch18:2-OOH) [5]: markedly stimulated the non-enzymatic formation of cholesteryl linoleate hydroperoxide
- monocyte adherence to HAEC induced by treated LDL (HAEC monolayers): increased monocyte adherence to HAEC

Compound: DWL KAF YDK VAE KLK EAF PDW LKA FYD KVA EKL KEA F (DWLKAFYDKVAEKLKEAFPDWLKAFYDKVAEKLKEAF; Synthetic apo A-I peptide mimetic) [37 pA]
- LDL-induced monocyte chemotaxis in pretreated cocultures [3]: did not induce monocyte chemotaxis
- LDL-induced monocyte chemotactic activity of LDL pre-incubated with the agent ([3]; human LDL incubated with agent, re-isolated, then cocultures): did not induce monocyte chemotactic activity
- ability of pretreated artery wall cocultures to oxidize LDL [2]: unable to oxidize the added LDL

Compound: CCCCC/C=C\C/C=C\CCCCCCCC(=O)O [linoleic acid]
- LDL-induced monocyte chemotaxis in fatty acid pretreated cocultures [3]: stimulates LDL-induced monocyte chemotaxis
- 13-HPODE equivalents in the lipid extract of apo A-I [6]: dramatically increased the 13-HPODE equivalents
- oxidation of LDL by fatty acid pretreated artery wall cells [2]: stimulates the oxidation of LDL by artery wall cells
